Laboratory results from US6525099B1, “N-substituted sulfonamide derivatives” (Eli Lilly and Company, priority 1998, dated 2003).

Legend:
human GluR4B receptor = molecular target: T1, human GluR4B receptor (Homo sapiens, UniProt P48058); assay: potentiation of glutamate receptor-mediated response in HEK cells stably expressing human GluR4B (Fluo-3 calcium fluorescence); assay type: cell-based; conditions: human GluR4B receptor expressed in HEK 293 cells
T1 construct: expressed in transfected cells
T1 sequence (P48058 21-902): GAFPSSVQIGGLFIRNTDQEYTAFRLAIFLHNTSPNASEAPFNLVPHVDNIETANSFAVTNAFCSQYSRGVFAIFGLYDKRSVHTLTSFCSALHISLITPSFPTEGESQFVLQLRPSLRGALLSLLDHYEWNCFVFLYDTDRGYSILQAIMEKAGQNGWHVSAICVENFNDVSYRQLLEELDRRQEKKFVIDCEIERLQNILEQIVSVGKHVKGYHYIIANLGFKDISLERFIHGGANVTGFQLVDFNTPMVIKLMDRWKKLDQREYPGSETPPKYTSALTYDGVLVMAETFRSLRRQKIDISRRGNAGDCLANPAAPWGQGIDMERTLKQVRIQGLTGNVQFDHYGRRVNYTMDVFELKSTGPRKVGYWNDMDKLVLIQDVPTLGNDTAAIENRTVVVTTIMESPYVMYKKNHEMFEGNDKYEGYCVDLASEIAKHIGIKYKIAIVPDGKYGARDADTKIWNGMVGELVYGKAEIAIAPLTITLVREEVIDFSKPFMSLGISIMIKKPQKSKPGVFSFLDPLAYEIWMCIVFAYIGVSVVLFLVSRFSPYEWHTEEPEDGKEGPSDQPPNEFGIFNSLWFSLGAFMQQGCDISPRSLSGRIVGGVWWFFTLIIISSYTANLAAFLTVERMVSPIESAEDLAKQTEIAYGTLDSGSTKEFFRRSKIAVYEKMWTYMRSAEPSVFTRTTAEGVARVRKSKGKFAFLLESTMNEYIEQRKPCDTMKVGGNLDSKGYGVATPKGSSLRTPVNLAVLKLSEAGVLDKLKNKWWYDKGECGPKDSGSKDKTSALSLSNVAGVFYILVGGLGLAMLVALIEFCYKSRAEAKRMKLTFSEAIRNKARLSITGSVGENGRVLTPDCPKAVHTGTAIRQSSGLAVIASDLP
Text: The ability of compounds of formula I to potentiate glutamate receptor-mediated response may be determined using fluorescent calcium indicator dyes (Molecular Probes, Eugene, Oreg., Fluo-3) and by measuring glutamate-evoked efflux of calcium into GluR4 transfected HEK293 cells, as described in more detail below.
In one test, 96 well plates containing confluent monolayers of HEK cells stably expressing human GluR4B (obtained as described in European Patent Application Publication Number EP-A1-583917) are prepared. The tissue culture medium in the wells is then discarded, and the wells are each washed once with 200 μl of buffer (glucose, 10 mM, sodium chloride, 138 mM, magnesium chloride, 1 mM, potassium chloride, 5 mM, calcium chloride, 5 mM, N-[2-hydroxyethyl]-piperazine-N-[2-ethanesulfonic acid], 10 mM, to pH 7.1 to 7.3). […]
Each test is then performed as follows. […] A second fluorescent reading is taken after 5 minutes incubation. 15 μl of 400 μM glutamate solution is then added to each well (final glutamate concentration 100 μM), and a third reading is taken. The activities of test compounds and cyclothiazide solutions are determined by subtracting the second from the third reading (fluorescence due to addition of glutamate in the presence or absence of test compound or cyclothiazide) and are expressed relative to enhance fluorescence produced by 100 μM cyclothiazide.

melting point | Compound | potentiation of agonist-induced excitability (human GluR4B receptor)
82 to 84 °C | CC(C)(C)c1ccc(C2(CNS(=O)(=O)C(F)(F)F)CC2)cc1 | –
87 to 89.5 °C | CC(C)S(=O)(=O)NCC1(c2ccc(C(C)(C)C)cc2)CC1 | –
– | NS(=O)(=O)c1cc2c(cc1Cl)NC(C1CC3C=CC1C3)NS2(=O)=O (stereo not drawn) [cyclothiazide] | potentiate agonist-induced excitability of human GluR4B receptor
